Our source for the RP-LC retention time values is the METLIN SMRT retention time set (Domingo-Almenara et al. 2019).

Molecules are shown by their SMILES.

This series can be described thus: gradient 5% acetonitrile 3 min, to 50% in 2 min, to 85% in 15 min, held 3 min, 100 µL/min. Particulars: column: Zorbax Extend-C18 2.1 x 50 mm; eluents: water / acetonitrile, 0.1% formic acid. The method, boiled down:
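Over 3 months, pure standards in mixtures of ~100 molecules were run by HPLC coupled to a quadrupole time-of-flight mass spectrometer in positive and negative ionization mode. The column was a Zorbax Extend-C18 (2.1 × 50 mm, 1.8 μm) at 100 μL/min, eluted with water and acetonitrile each holding 0.1% formic acid, with 40 μL dead and 900 μL dwell volumes. Retention time was determined from adduct peaks chosen by software and checked manually.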
The compound `O=C(CCn1nnc2cc(-c3noc(-c4cccc(F)c4)n3)ccc21)N1CCCC1` displayed an RP-LC retention time of 928 s.

As for `Cc1ccc(-n2c(N3CCCC(C(=O)NCC(C)c4ccccc4)C3)nc3ccsc3c2=O)cc1` (centres undefined), the RP-LC retention time is 961 s.

Compound `O=C(Nc1ccccc1)N1CCCC1c1nncn1C1CCCC1` (centres undefined) displayed an RP-LC retention time of 622 s.

For `CC(C)Cn1ccc2c(cc(C(=O)NCc3cccc(Br)c3)n2C)c1=O`, the RP-LC retention time worked out at 901 s.

On to `CCc1nc2ccc(-c3noc(C(C)NC(=O)c4ccco4)n3)cc2n1CC` (centres undefined), for which the RP-LC retention time was 621 s.

As to `Cc1cc2nc(C(=O)OC(C)C)c(N3CCN(c4ccccn4)CC3)nc2cc1C`, the RP-LC retention time was 791 s.

Regarding `O=C(Nc1nnc(C2CC(=O)N(c3ccccc3)C2)o1)c1ccccc1Br` (centres undefined), the RP-LC retention time worked out at 709 s.

Take `c1cc(-c2noc(C3CCCCC3)n2)cc(N2CCOCC2)n1`: the RP-LC retention time was determined as 1010 s.

`COC1(C2=NCCN2)COc2ccccc2O1` (centres undefined): the RP-LC retention time is 581 s.

`Cc1ccc(NS(=O)(=O)c2cc(-c3cc(C(F)(F)F)on3)sc2C)cc1C` yielded an RP-LC retention time of 1200 s.

`CCOC(=O)c1sc(NC(=O)CC(C)C)nc1-c1ccccc1` yielded an RP-LC retention time of 1050 s.

`COc1cc(Cl)c(C)cc1NC(=O)C1CCCN(c2nc3ccccc3nc2OC)C1` (centres undefined) yielded an RP-LC retention time of 1380 s.

As to `COc1ccc(CNC(=O)C2(C)Oc3cccnc3N(C)C2=O)cc1` (centres undefined), the RP-LC retention time amounted to 748 s.

`O=C(c1ccsc1)N1CCOc2ccc(N3CCOCC3)cc2C1`: the RP-LC retention time came out at 701 s.

Turning to `CCC(C)NC(=O)c1ccn[nH]1` (centres undefined), the RP-LC retention time is 593 s.

In turn, `Cn1c(=O)n(C)c2cc(CNCCc3ccc(Cl)cc3)ccc21` gave an RP-LC retention time of 630 s.

In turn, `Cc1cc(OCC(=O)N2CCC3(O)CCCCC3C2)c2c3c(c(=O)oc2c1)CCCC3` (centres undefined) yielded an RP-LC retention time of 859 s.

Take `Cc1ccc(-c2nnc(-c3ccccc3)o2)cc1S(=O)(=O)N(C)C`: the RP-LC retention time was determined as 950 s.

Take `COc1ccc(-c2noc(C3CC(=O)N(c4ccc(C(C)C)cc4)C3)n2)cc1OC` (centres undefined): the RP-LC retention time came to 870 s.

Turning to `Cc1cc(C)cc(NC(=O)c2cccn2Cc2noc(C)n2)c1`, the RP-LC retention time is 928 s.

`CN(Cc1ccccc1)C(=O)CN1C(=O)CCCc2cc(S(=O)(=O)N3CCCCC3)ccc21` came in with an RP-LC retention time of 907 s.

For the compound `Cc1ccccc1-c1noc(CN2N=NC3C(=O)N(c4cccc(Cl)c4)C(=O)C32)n1` (centres undefined), the RP-LC retention time was determined as 996 s.

The compound `Cc1cc(Br)ccc1NC(=O)C1CCCN(c2nccnc2Oc2ccccc2)C1` (centres undefined) showed an RP-LC retention time of 1120 s.

In the case of `NC(=O)c1ccsc1NC(=O)c1ccc(S(=O)(=O)N2CCc3ccccc3C2)cc1`, the RP-LC retention time was determined as 877 s.

In turn, `O=C(Cc1ccc(Cl)cc1)N1CCN(c2nc(CN3CCOCC3)cs2)CC1` gave an RP-LC retention time of 642 s.

In turn, `Cn1c(=O)c2c(C(=O)NCC3CCN(Cc4cccc(Cl)c4)CC3)cc(=O)n(C)c2n(C)c1=O` displayed an RP-LC retention time of 632 s.

For the compound `COc1ccc(C)cc1NC(=O)[C@@H]1[C@H](c2cc(OC)c(OC)c(OC)c2)c2cc3c(cc2[C@H](O)[C@H]1CO)OCO3`, the RP-LC retention time came to 795 s.

With `CCCc1nc(-c2c(C)cc(C)nc2NC(=O)c2ccc(F)cc2F)no1`, the RP-LC retention time was 895 s.

In turn, `Cc1ccc(-n2cc3c(c(C(=O)N4CCCC4)c2=O)CC(C)(C)CC3=O)cc1` registered an RP-LC retention time of 758 s.

For the compound `COc1ccc(-n2ncc3c(=O)n(Cc4nc(-c5ccc(OC(F)(F)F)cc5)no4)cnc32)cc1`, the RP-LC retention time was found to be 1100 s.

Take `CC(=O)N1CCc2cc(C)c(S(=O)(=O)NC(C)C)cc21`: the RP-LC retention time turned out to be 740 s.

As for `COC(=O)c1c2c(nc3ccccc13)CCN(C(=O)Nc1cc(OC)ccc1OC)C2`, the RP-LC retention time worked out at 839 s.

Regarding `CCC(=O)Nc1c(C)noc1/C=C/c1ccc(S(=O)(=O)Nc2ccc(S(N)(=O)=O)cc2)s1`, the RP-LC retention time came out at 719 s.

Turning to `CCCCN(C)C(=O)c1cc2sc(C)c(CN3CCCC3)c2[nH]1`, the RP-LC retention time turned out to be 671 s.

`O=C(Cc1csc2nc(-c3ccccc3)cn12)NCc1ccc(Br)cc1` yielded an RP-LC retention time of 815 s.

The compound `O=C(C1CCN(c2cnc(N3CCCC3)nc2)CC1)N1CCOCC1` yielded an RP-LC retention time of 587 s.

On to `Cc1cc2c(cc1NC(=O)c1cccs1)n(C)c(=O)c(=O)n2C`, for which the RP-LC retention time is 663 s.

As to `Cc1ccc(C(=O)NCc2ccc3c(c2)ncn3C(C)C)s1`, the RP-LC retention time was 614 s.

On to `COC(=O)c1cccc(C(=O)Nc2cc(C)ccc2C)n1`, for which the RP-LC retention time was found to be 936 s.

In turn, `O=C(NCc1cccc(C(F)(F)F)c1)c1cn2ccccc2n1` yielded an RP-LC retention time of 748 s.

Compound `COc1ccc2c(c1)c(CN1CC[C@H](CO)[C@H](N(C)C)C1)cn2C(C)C` had an RP-LC retention time of 591 s.

As to `Cc1ccnc(N2CCCC(C(=O)NCc3ccc(F)cc3Cl)C2)n1` (centres undefined), the RP-LC retention time turned out to be 792 s.

As for `Cc1sc(C)c(S(=O)(=O)N2CCN(c3ccccc3)CC2)c1-c1cc(C(F)(F)F)on1`, the RP-LC retention time turned out to be 1300 s.

As for `COC(=O)C1=CN(c2ccc(Cl)cc2)c2cc(F)ccc2S1(=O)=O`, the RP-LC retention time amounted to 919 s.

With `Cc1ccc(Cl)cc1NC(=O)Cc1c(C)nn(-c2nc(-c3ccccc3)cs2)c1C`, the RP-LC retention time was found to be 1230 s.

For the compound `CN(CC1(C)CCOCC1)C(=O)c1ccc(C#N)cc1`, the RP-LC retention time was determined as 716 s.

Turning to `Cc1cc(C)cc(N2CC(c3nc(-c4ccccc4F)no3)CC2=O)c1` (centres undefined), the RP-LC retention time worked out at 1010 s.

The compound `Cc1ccc(CNC(=O)c2nnc(-c3ccc(S(=O)(=O)N(C)C)cc3)o2)cc1C` showed an RP-LC retention time of 947 s.

`COc1cc2c(cc1OC)C(C(=O)NCc1ccc(C)o1)C1c3ccccc3CCN1C2=O` (centres undefined) gave an RP-LC retention time of 946 s.

On to `Cc1nc(C2CCOCC2)n(C2CCN(S(=O)(=O)c3cccnc3)C2)n1` (centres undefined), for which the RP-LC retention time amounted to 622 s.

Compound `CCCCn1c(=O)c2ccccc2n(Cc2nc(-c3cc(OC)c(OC)c(OC)c3)no2)c1=O` yielded an RP-LC retention time of 1080 s.

In turn, `CCCNC(=O)c1cc(=O)[nH]c2ccccc12` showed an RP-LC retention time of 620 s.

Turning to `CCCn1c(=O)c(C)nc2cc(-c3noc(-c4ccc(Br)o4)n3)ccc21`, the RP-LC retention time amounted to 1160 s.

Regarding `COc1ccc(CN2C[C@@H]3C(=O)N(C)C(=O)[C@@H]3C2)c(OC)c1`, the RP-LC retention time stood at 587 s.

For `Cc1ccccc1CNC(=O)C1(C)CCCN(C(=O)Nc2ccccc2)C1` (centres undefined), the RP-LC retention time worked out at 898 s.

`CC(C)NC(=O)c1ccc(OCC2CCCN(C(=O)c3ccc(F)c(F)c3)C2)cc1` (centres undefined) came in with an RP-LC retention time of 869 s.

With `N#Cc1cnc2ccccc2c1N1CCC(C(=O)N2CCSCC2)CC1`, the RP-LC retention time worked out at 658 s.

`CCc1ccccc1NC(=O)C1CC(=O)N(c2ccc3c(c2)CCN3C(C)=O)C1` (centres undefined) registered an RP-LC retention time of 698 s.

`CCOc1ccc(/C=C2\CCc3ccccc3C2=O)cc1` yielded an RP-LC retention time of 1290 s.

Turning to `COc1ccc(NC(=O)Cn2c(=O)c3cc(-c4ccco4)nn3c3ncccc32)cc1Cl`, the RP-LC retention time came to 822 s.

As to `CCOC(=O)C(C)NC(=O)N1CCN(c2nc3ccccc3nc2C(F)(F)F)CC1` (centres undefined), the RP-LC retention time stood at 921 s.

The compound `Cc1oc(-c2[nH]ncc2C(=O)N(C)C)cc1S(=O)(=O)NCc1ccccc1Cl` showed an RP-LC retention time of 693 s.

As to `Cc1cc(N2CCCC2)nc(N2CCN(C(=O)CCC3CCCCC3)CC2)n1`, the RP-LC retention time is 825 s.

`Cc1ccc(Cl)cc1NC(=O)Cn1cnc2c(sc3nc(-c4ccccc4)ccc32)c1=O` registered an RP-LC retention time of 1070 s.

With `Cc1ccc(C)c(N2CCN(c3ccnc(SCC(=O)NCCC4=CCCCC4)n3)CC2)c1`, the RP-LC retention time amounted to 1090 s.

`O=C(CN1C(=O)C(C(=O)N2CCCC2)Sc2ccccc21)NCc1cccc(Br)c1` (centres undefined) registered an RP-LC retention time of 972 s.

`COc1cc(OC)cc(C(=O)N2CCC3(C2)C(=O)Nc2ccccc23)c1` (centres undefined) showed an RP-LC retention time of 707 s.

Take `COC(=O)c1nnn(-c2ccc(C)c(C)c2)c1C(=O)OC`: the RP-LC retention time is 916 s.

On to `CN(C)c1ccc2c(c1)OC(N)=C(C#N)C2c1cccc(C(F)(F)F)c1` (centres undefined), for which the RP-LC retention time came to 1020 s.

The compound `COc1ccc2c(c1)C1(CCN(C(=O)c3ccccc3C(F)(F)F)C1)C(=O)N2` (centres undefined) registered an RP-LC retention time of 714 s.

Compound `COc1ccc(-c2noc(CC(=O)NCc3ccccc3)c2-c2ccc(OC)cc2)cc1` displayed an RP-LC retention time of 924 s.

Take `O=C(Cn1ccc2sccc2c1=O)NCc1ccc(F)cc1`: the RP-LC retention time was 694 s.

Turning to `Cc1ccc(-c2ccc(-n3nc(C)c(S(=O)(=O)NCCN4CCOCC4)c3C)nn2)cc1C`, the RP-LC retention time is 702 s.

As for `CCOc1ccc(C(=O)Nc2ccc(Nc3ccc(-n4cccn4)nn3)cc2)cc1OCC`, the RP-LC retention time is 782 s.

`COCCN(Cc1ccc(F)cc1)Cc1cc(=O)c2cc(Cl)ccc2[nH]1` yielded an RP-LC retention time of 880 s.

For `O=C(c1nnc(-c2ccc(S(=O)(=O)N3CCOCC3)cc2)o1)N1CCCC1`, the RP-LC retention time is 734 s.

Consider `CCn1c(-c2ccccc2)cc(C(=O)NC)c1C`, for which the RP-LC retention time was 807 s.

`Cc1c(Cl)cccc1Nc1c(-c2cccc(O)c2)nc2cnccn12`: the RP-LC retention time came out at 813 s.

Turning to `CCOc1cccc(-c2noc(CN3C(=O)COc4ccccc43)n2)c1`, the RP-LC retention time stood at 1050 s.
